# Assay results reported in the Bradley open melting point set (2014).
# “And” between values parts separate entries of the source, which are not always exact repeats. Identical values can stand only once.
row,melting point,Structure (SMILES)
1,280 °C,Cc1cc2nc3c(=O)[nH]c(=O)nc-3n(C[C@H](O)[C@H](O)[C@H](O)CO)c2cc1C [Riboflavin]
2,183 °C,CO[C@H]1C=CO[C@@]2(C)Oc3c(C)c(O)c4c(O)c(c(/C=N/N5CCN(C)CC5)c(O)c4c3C2=O)NC(=O)C(C)=CC=C[C@H](C)[C@H](O)[C@@H](C)[C@H](O)[C@H](C)[C@H](OC(C)=O)[C@@H]1C [Rifampin]
3,1.5 °C,O=Cc1ccccc1O [Salicylaldehyde]
4,140 °C,NC(=O)c1ccccc1O [Salicylamide]
5,159 °C,O=C(O)c1ccccc1O [Salicylic acid]
6,134 °C,O=C(O)CCCCCCCCC(=O)O [Sebacic acid]
7,259 °C,Nc1ccc(S(=O)(=O)Nc2ncccn2)cc1 [Sulfadiazine]
8,192 °C,Nc1ccc(S(=O)(=O)Nc2ccccn2)cc1 [Sulfapyridine]
9,136 °C,O=C1C(CCS(=O)c2ccccc2)C(=O)N(c2ccccc2)N1c1ccccc1 (centres undefined) [Sulfinpyrazone]
10,184 °C,CC1=C(CC(=O)O)c2cc(F)ccc2/C1=C\c1ccc([S+](C)[O-])cc1 (centres undefined) [Sulindac]
11,183 °C,CS(=O)c1ccc(cc1)/C=C3c2ccc(F)cc2C(CC(=O)O)=C3C (centres undefined) [Sulindac]
12,126 °C,O[C@@H]1CC[C@H](C[C@H]1OC)/C=C(C)[C@H]2OC(=O)[C@@H]4CCCCN4C(=O)C(=O)[C@]3(O)O[C@H]([C@H](C[C@@H](C)CC(C)=C[C@@H](CC=C)C(=O)C[C@H](O)[C@H]2C)OC)[C@H](C[C@H]3C)OC [Tacrolimus]
13,210 °C,O=C(O)C(O)C(O)C(=O)O (centres undefined) [Tartaric acid]
14,165 °C,CN(C)[C@@H]1C(O)=C(C(N)=O)C(=O)[C@@]2(O)C(O)=C3C(=O)c4c(O)cccc4[C@@](C)(O)[C@H]3C[C@@H]12 [Tetracycline]
15,-108 °C,C1CCOC1 [Tetrahydrofuran]
16,-45 °C,C1CCOCC1 [Tetrahydropyran]
17,85 °C,Cc1nc(C)c(C)nc1C [Tetramethylpyrazine]
18,159 °C,c1ccc2c(c1)Sc1ccccc1S2 [Thianthrene]
19,210 °C,O=c1c2ccccc2sc2ccccc12 [Thiaxanthone]
20,172 °C,Cc1ccc(S(=O)(=O)NC(=O)NN2CCCCCC2)cc1 [Tolazamide]
21,201 °C,COc1cc(Cc2cnc(N)nc2N)cc(OC)c1OC [Trimethoprim]
22,-115 °C,CO[SiH](OC)OC [Trimethoxysilane]
23,197 °C,c1ccc2c(c1)c1ccccc1c1ccccc21 [Triphenylene]
24,163 °C,OC(c1ccccc1)(c1ccccc1)c1ccccc1 [Triphenylmethanol]

row,melting point,Structure (SMILES)
1,180 °C,C/C=C/C(=O)N(CCCCCCC)C(C(=O)NC(C)(C)C)c1cc2ccccc2c2ccccc12 (centres undefined) [Ugi product 148B]
2,-5 °C,CCCCCCCCCCCc1ccccc1 [Undecylbenzene]
3,175 °C,"C=C(C)Cn1c(N)cc(=O)n(C)c1=O [Uracil, 6-amino-3-methyl-1- (2-methylallyl)-]"
4,330 °C,O=c1cc[nH]c(=O)[nH]1 [Uracil]
5,165 °C,O=c1ccn([C@@H]2O[C@@H](CO)[C@H](O)[C@H]2O)c(=O)[nH]1 [Uridine]
6,63.5 °C,CC=1CCCC(C)(C)C=1/C=CC(C)=CC=CC(/C)=CCO [Vitamin A]
7,2 °C,Cc1c(C)c2c(c(C)c1O)CC[C@@](C)(CCC[C@H](C)CCC[C@H](C)CCCC(C)C)O2 [Vitamin E]
8,133 °C,CC(=O)C=C(C)c1ccc(-c2ccccc2)cc1 [Xenipentone]
9,212 °C,Nc1ccn([C@H]2CC[C@@H](CO)O2)c(=O)n1 [Zalcitabine]
10,109 °C,Cc1cn([C@H]2C[C@H](N=[N+]=[N-])[C@@H](CO)O2)c(=O)[nH]c1=O [Zidovudine]
11,145 °C,CC(c1cc2ccccc2s1)N(O)C(N)=O (centres undefined) [Zileuton]
12,162 °C,NS(=O)(=O)Cc1noc2ccccc12 [Zonisamide]
13,144 °C,N#CCS(=O)(=O)c1ccc(C(F)(F)F)cc1 [[4-(trifluoromethyl)phenylsulfonyl]acetonitrile]
14,67.8 °C,"CC(=O)[C@H]1C[C@@H](CC(=O)O)C1(C)C [[(1S,3S)-3-Acetyl-2,2-dimethylcyclobutyl]acetic acid]"
15,161 °C,CC(C)C1=CC2=CC[C@@H]3[C@](C)(CCC[C@@]3(C)C(=O)O)[C@H]2CC1 [abietic acid]
16,123 °C,CCCC(=O)Nc1ccc(OCC(O)CNC(C)C)c(C(C)=O)c1 (centres undefined) [acebutolol] [listing 1 of 2 here]
17,119 °C,CCCC(=O)Nc1ccc(OCC(O)CNC(C)C)c(C(C)=O)c1 (centres undefined) [acebutolol] [listing 2 of 2 here]
18,-125 °C,CC=O [acetaldehyde]
19,169 °C,CC(=O)Nc1ccc(O)cc1 [acetaminophen] [listing 1 of 2 here]
20,170 °C,CC(=O)Nc1ccc(O)cc1 [acetaminophen] [listing 2 of 2 here]
21,115 °C,CC(=O)Nc1ccccc1 [acetanilide] [listing 1 of 2 here]
22,114 °C,CC(=O)Nc1ccccc1 [acetanilide] [listing 2 of 2 here]
23,89 °C,CC(=O)SCC(Cc1ccccc1)C(=O)NCC(=O)OCc1ccccc1 (centres undefined) [acetorphan]

row,Structure (SMILES),melting point
1,CCNc1nc(NC(C)(C)C)nc(SC)n1 [Terbutryn],105 °C
2,O=C5\C=C4/C(C3CCC2(C(CCC2OC(=O)Cc1ccccc1)C3CC4)C)(C)CC5 (centres undefined) [Testosterone phenylacetate],129 °C
3,C[C@]12CC[C@H]3[C@@H](CCC4=CC(=O)CC[C@@]43C)[C@@H]1CC[C@@H]2OC(=O)CCc1ccccc1 [Testosterone phenylpropanoate],116 °C
4,c1ccc2cc3cc4ccccc4cc3cc2c1 [Tetracene],350 °C
5,ClC(Cl)(Cl)Cl [Tetrachloromethane],-23 °C
6,O=S(Cl)Cl [Thionyl dichloride],-104 °C
7,Cc1ccccc1 [Toluene],-93 °C
8,N#CC(Cl)(Cl)Cl [Trichloroacetonitrile],-42 °C
9,O=C(Cl)C(Cl)(Cl)Cl [Trichloroacetyl chloride],-146 °C
10,O=[O+][O-] [Trioxid-2-en-2-ium-1-ide],-193 °C
11,CN1[C@@H]2CC[C@H]1CC(=O)C2 [Tropinone],43 °C
12,C=COC(C)=O [Vinyl acetate],-100 °C
13,C/C=C\C#N [Z-crotononitrile],-72.6 °C
14,CC(=O)OC1CCC2C3CCC4CC(CC(=O)O)CCC4(C)C3CCC12C (centres undefined) [[17-(acetyloxy)androstan-3-yl]acetic acid],152 °C
15,"ClCc1ccccc1CCl [a,a'-dichloro-o-xylene]",56 °C
16,"ClC1(Cl)[C@]2(Cl)C(/Cl)=C(/Cl)[C@@]1(Cl)[C@@H]3[C@@H](Cl)[C@@H](Cl)C[C@H]23 [a-Chlordane, cis-Chlordane]",106 °C
17,Cl[C@H]1[C@H](Cl)[C@@H](Cl)[C@H](Cl)[C@H](Cl)[C@H]1Cl [a-hexachlorocyclohexane],159 °C
18,c1cc2c3c(cccc3c1)CC2 [acenaphthene] [listing 1 of 2 here],95 °C
19,c1cc2c3c(cccc3c1)CC2 [acenaphthene] [listing 2 of 2 here],94 °C (2×) and 95 °C
20,CC(C)=O [acetone],-94 °C
21,CC(=O)CCC(C)=O [acetonylacetone],-6 °C
22,CC(=O)Br [acetyl bromide],-96 °C
